Measurements reported in US20230085307A1, “PYRIDAZINONE COMPOUND AND HERBICIDE” (NISSAN CHEMICAL CORPORATION, priority 2019, published 2023).

What was measured:
late watergrass = test: Test Example 1: herbicidal activity, application before weed generation under submerged conditions (Table 16, symbol A); format: in vivo, late watergrass (Echinochloa oryzicola); settings: 320 g/ha applied herbicide
In short: (§1)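 Emulsion formulation, water-diluted to set dose, was put onto the flooded surface (4 cm depth, alluvial soil) the same day weeds were sown and 2.5-leaf rice transplanted. After 3 weeks at 25-30 °C under glass, each species was rated 0 (≤5% kill) to 5 (≥90% kill).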

Japanese bulrush [1] = test: Test Example 1: herbicidal activity, application before weed generation under submerged conditions (Table 16, symbol B); format: in vivo, Japanese bulrush (Schoenoplectus juncoides); settings: 320 g/ha applied herbicide
In short: as §1

Japanese bulrush [2] = test: Test Example 2: herbicidal activity, application during weed generation under submerged conditions (Table 17, symbol B); format: in vivo, Japanese bulrush (Schoenoplectus juncoides); settings: AAH 320 g/ha; application during weed generation, submerged conditions
In short: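 In this pot test, flooded alluvial soil (water depth 4 cm) holds all three species sown as a mixture. Once seedlings have one to two leaves, the compound's emulsion, thinned with water to the intended dose, is poured on the water; grading follows after three weeks on the earlier criteria.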

barnyard grass [3] = test: Test Example 3: herbicidal effect by foliage application, Wagner pot (Table 18, symbol H); format: in vivo, barnyard grass (Echinochloa crus-galli); settings: for herbicidal effect on H (barnyard grass), rating 0-5: 320 g/ha
In short: (§2)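 Plants were sown in alluvial soil held under 0.1–0.5 cm standing water and grown 14 days in a greenhouse at 25–30 °C. An emulsifiable formulation, water-diluted to the set dose, was then sprayed onto the foliage, and effects were scored three weeks later using previously defined criteria.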

Chinese sprangletop = test: Test Example 3: herbicidal effect by foliage application, Wagner pot (Table 18, symbol D); format: in vivo, chinese sprangletop (Leptochloa chinensis); settings: for herbicidal effect on D (Chinese sprangletop), rating 0-5: 320 g/ha
In short: as §2

southern crabgrass = test: Test Example 4: herbicidal effect by soil treatment (Table 19, symbol F); format: in vivo, southern crabgrass (Digitaria ciliaris); settings: for F: southern crabgrass, herbicidal effect rating: AAH 320 g/ha
In short: (§3)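 Emulsion of test compound, water-diluted to predetermined amount, sprayed on soil after sowing (seed depth ~1.5 cm, sterilized diluvial soil). Greenhouse, 25–30° C. Effect graded at three weeks post-spray.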

barnyard grass [4] = test: Test Example 4: herbicidal effect by soil treatment (Table 19, symbol H); format: in vivo, barnyard grass (Echinochloa crus-galli); settings: for H: barnyard grass, herbicidal effect rating: AAH 320 g/ha
In short: as §3

windgrass [5] = test: Test Example 4: herbicidal effect by soil treatment (Table 19, symbol L); format: in vivo, windgrass (Apera spica-venti)
In short: as §3

lambsquarters [6] = test: Test Example 4: herbicidal effect by soil treatment (Table 19, symbol O); format: in vivo, lambsquarters (Chenopodium album); settings: for O: lambsquarters, herbicidal effect rating: AAH 320 g/ha
In short: as §3

barnyard grass [7] = test: Test Example 5: herbicidal effect by foliage application, plastic box (Table 20, symbol H); format: in vivo, barnyard grass (Echinochloa crus-galli); settings: foliage application; for effect on barnyard grass (H): 3 weeks after application
In short: (§4)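 Post-emergence foliar test in sterilized diluvial soil. Compound applied as water-diluted emulsion at a predetermined rate to 14-day-old plants; evaluation at three weeks.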

blackgrass = test: Test Example 5: herbicidal effect by foliage application, plastic box (Table 20, symbol J); format: in vivo, blackgrass (Alopecurus myosuroides); settings: foliage application; for effect on blackgrass (J): 3 weeks after application
In short: as §4

windgrass [8] = test: Test Example 5: herbicidal effect by foliage application, plastic box (Table 20, symbol L); format: in vivo, windgrass (Apera spica-venti); settings: foliage application; for effect on windgrass (L): 3 weeks after application
In short: as §4

lambsquarters [9] = test: Test Example 5: herbicidal effect by foliage application, plastic box (Table 20, symbol O); format: in vivo, lambsquarters (Chenopodium album); settings: foliage application; for effect on lambsquarters (O): 3 weeks after application
In short: as §4

persian speedwell = test: Test Example 4: herbicidal effect by soil treatment (Table 19, symbol R); format: in vivo, Persian speedwell (Veronica persica); settings: AAH 320 g/ha
In short: as §3

redroot pigweed = test: Test Example 5: herbicidal effect by foliage application, plastic box (Table 20, symbol N); format: in vivo, redroot pigweed (Amaranthus retroflexus); settings: foliage application
In short: as §4

chickweed = test: Test Example 5: herbicidal effect by foliage application, plastic box (Table 20, symbol P); format: in vivo, common chickweed (Stellaria media); settings: foliage application
In short: as §4

[10] = amount of applied herbicide 320 g/ha
[11] = 320 g/ha, three weeks after application
[12] = AAH 320 g/ha, evaluated three weeks after application

Row | Compound | Herbicidal effect on A: late watergrass (grade 0-5) (late watergrass) | Herbicidal effect on B: Japanese bulrush (grade 0-5) (Japanese bulrush [1]) | herbicidal effect rating, B: Japanese bulrush (Japanese bulrush [2]) | herbicidal effect on H (barnyard grass), rating 0-5 (barnyard grass [3]) | herbicidal effect on D (Chinese sprangletop), rating 0-5 (Chinese sprangletop) | F: southern crabgrass, herbicidal effect rating (southern crabgrass) | H: barnyard grass, herbicidal effect rating (barnyard grass [4]) | O: lambsquarters, herbicidal effect rating (lambsquarters [6]) | effect on barnyard grass (H) (barnyard grass [7]; 320 g/ha) | effect on blackgrass (J) (blackgrass; 320 g/ha) | effect on windgrass (L) (windgrass [8]; 320 g/ha) | effect on lambsquarters (O) (lambsquarters [9]; 320 g/ha) | further results
1 | C=CCC(C)Oc1ccc(-c2sc3ccccc3c2-c2c(O)c(C)nn(C)c2=O)cc1 (racemic) [1-213] | 5 (Herbicidal rate of 90% or more (almost completely withered)) | 5 (Herbicidal rate of 90% or more (almost completely withered)) | 3 (Herbicidal rate of 40% or more and less than 70%) | 5 (Herbicidal rate of 90% or more (almost completely withered)) | 4 (Herbicidal rate of 70% or more and less than 90%) | 0 (Herbicidal rate of 5% or less (almost no effect)) | 0 (Herbicidal rate of 5% or less (almost no effect)) | 0 (Herbicidal rate of 5% or less (almost no effect)) | 5 (Herbicidal rate of 90% or more (almost completely withered)) | 5 (Herbicidal rate of 90% or more (almost completely withered)) | 5 (Herbicidal rate of 90% or more (almost completely withered)) | 5 (Herbicidal rate of 90% or more (almost completely withered)) | L: windgrass, herbicidal effect rating (windgrass [5]; AAH 320 g/ha): 2 (Herbicidal rate of 20% or more and less than 40%)
2 | COCC(C)Oc1ccc(-c2sc3ccccc3c2-c2c(O)c(C)nn(C)c2=O)cc1 (racemic) [1-228] | 5 (Herbicidal rate of 90% or more (almost completely withered)) | 5 (Herbicidal rate of 90% or more (almost completely withered)) | 3 (Herbicidal rate of 40% or more and less than 70%) | 5 (Herbicidal rate of 90% or more (almost completely withered)) | 5 (Herbicidal rate of 90% or more (almost completely withered)) | 4 (Herbicidal rate of 70% or more and less than 90%) | 4 (Herbicidal rate of 70% or more and less than 90%) | 5 (Herbicidal rate of 90% or more (almost completely withered)) | 5 (Herbicidal rate of 90% or more (almost completely withered)) | 5 (Herbicidal rate of 90% or more (almost completely withered)) | 5 (Herbicidal rate of 90% or more (almost completely withered)) | 5 (Herbicidal rate of 90% or more (almost completely withered)) | R: persian speedwell, herbicidal effect rating (persian speedwell): 5 (Herbicidal rate of 90% or more (almost completely withered))
3 | CC(=O)c1ccc(-c2sc3ccccc3c2-c2c(O)c(C)nn(C)c2=O)cc1 [1-041] | 3 (Herbicidal rate of 40% or more and less than 70%) | 4 (Herbicidal rate of 70% or more and less than 90%) | 3 (Herbicidal rate of 40% or more and less than 70%) | 1 (Herbicidal rate of 5% or more and less than 20%) | 4 (Herbicidal rate of 70% or more and less than 90%) |  |  |  |  |  |  |  | herbicidal effect rating, F: southern crabgrass (southern crabgrass; [10]): 2 (Herbicidal rate of 20% or more and less than 40%); herbicidal effect rating, H: barnyard grass (barnyard grass [4]; [10]): 0 (Herbicidal rate of 5% or less (almost no effect)); herbicidal effect rating, O: lambsquarters (lambsquarters [6]; [10]): 5 (Herbicidal rate of 90% or more (almost completely withered)); herbicidal effect grade, H: barnyard grass (barnyard grass [7]; [11]): 0 (Herbicidal rate of 5% or less (almost no effect)); herbicidal effect grade, J: blackgrass (blackgrass; [11]): 0 (Herbicidal rate of 5% or less (almost no effect)); herbicidal effect grade, L: windgrass (windgrass [8]; [11]): 4 (Herbicidal rate of 70% or more and less than 90%); herbicidal effect grade, N: redroot pigweed (redroot pigweed; [11]): 5 (Herbicidal rate of 90% or more (almost completely withered)); herbicidal effect grade, O: lambsquarters (lambsquarters [9]; [11]): 3 (Herbicidal rate of 40% or more and less than 70%); herbicidal effect grade, P: chickweed (chickweed; [11]): 5 (Herbicidal rate of 90% or more (almost completely withered))
4 | Cc1nn(C)c(=O)c(-c2c(-c3ccc(O)cc3)sc3ccc(F)cc23)c1O [2-337] | 4 (Herbicidal rate of 70% or more and less than 90%) | 3 (Herbicidal rate of 40% or more and less than 70%) | 2 (Herbicidal rate of 20% or more and less than 40%) |  |  |  |  |  |  |  |  |  | herbicidal effect on H: barnyard grass (barnyard grass [3]; [10]): 3 (Herbicidal rate of 40% or more and less than 70%); herbicidal effect on D: Chinese sprangletop (Chinese sprangletop; [10]): 0 (Herbicidal rate of 5% or less (almost no effect)); herbicidal effect on F: southern crabgrass (southern crabgrass; [10]): 0 (Herbicidal rate of 5% or less (almost no effect)); herbicidal effect on H: barnyard grass (barnyard grass [4]; [10]): 0 (Herbicidal rate of 5% or less (almost no effect)); herbicidal effect on L: windgrass (windgrass [5]; [10]): 0 (Herbicidal rate of 5% or less (almost no effect)); herbicidal effect on O: lambsquarters (lambsquarters [6]; [10]): 0 (Herbicidal rate of 5% or less (almost no effect)); H: barnyard grass, herbicidal effect (criteria 0-5) (barnyard grass [7]; [12]): 0 (Herbicidal rate of 5% or less (almost no effect)); J: blackgrass, herbicidal effect (criteria 0-5) (blackgrass; [12]): 0 (Herbicidal rate of 5% or less (almost no effect)); L: windgrass, herbicidal effect (criteria 0-5) (windgrass [8]; [12]): 0 (Herbicidal rate of 5% or less (almost no effect)); N: redroot pigweed, herbicidal effect (criteria 0-5) (redroot pigweed; [12]): 4 (Herbicidal rate of 70% or more and less than 90%); O: lambsquarters, herbicidal effect (criteria 0-5) (lambsquarters [9]; [12]): 3 (Herbicidal rate of 40% or more and less than 70%); P: chickweed, herbicidal effect (criteria 0-5) (chickweed; [12]): 5 (Herbicidal rate of 90% or more (almost completely withered))
